{"source": "patent US20210292710A1", "about": "“METHOD FOR ENHANCING IMMUNE FUNCTION OF IMMUNE CELL AND IMMUNE CELL LINE PRODUCED USING THE SAME” (INDUSTRY-ACADEMIC COOPERATION FOUNDATION, YONSEI UNIVERSITY, priority 2020, published 2021)", "tested_on": "GLUT1", "assay": "GLUT1 expression in T cell based on type of PI3K inhibitor", "source_text": "More specifically, referring to (a) of FIG. 12, the results of GLUT1 expression according to the type of PI3K inhibitor in the helper T cell are shown. In this connection, the PI3K inhibitor may include BKM 120 that may inhibit all subtypes, CAL-101 that may inhibit only p110δ, IPI-145 capable of inhibiting p110γ and P110δ, BYLT719 capable of inhibiting only p110α, and TGX-211 capable of inhibiting only p110β.\nReferring to (b) of FIG. 12, the results of GLUT1 expression according to the type of PI3K inhibitor in cytotoxic T cells are shown.", "data": [{"smiles": "CC[C@H](Nc1ncnc2[nH]cnc12)c1nc2cccc(F)c2c(=O)n1-c1ccccc1", "note": "[CAL-101, idelalisib]", "values": [{"measurement": "GLUT1 expression level versus BYLT719 and TGX-211 inhibitors", "setting": "cytotoxic T cells", "result": "higher GLUT1 expression levels"}, {"measurement": "GLUT1 expression level versus BYLT719 and TGX-211 inhibitors", "setting": "helper T cell", "result": "higher GLUT1 expression levels"}]}]}
